Assay results reported in US7951385B2, “Probiotic strain and antimicrobial peptide derived therefrom” (Cipla Medpro Research and Development (Pty) Ltd., priority 2006, dated 2011).
Bridge positions count the residues as written; N and C are the ends. Square brackets hold non-standard residues; d marks the D form. Peptide text beside a SMILES is read from it. * marks the point of attachment. Ileψ(thiazoline)Cys = CC[C@H](C)[C@H](N)C1=N[C@H](C(=O)*)CS1; dOrn = NCCC[C@@H](N)C(=O)O

Key:
[1] = system: Pseudomonas sp. isolated from infected middle-ear fluid; experiment: Activity on paper disks and comparison with antibiotics (inhibition zones); assay type: cell-based; details: Ampicillin 10 μg, Bacitracin 10 units, Chloramphenicol 30 μg, Erythromycin 15 μg, Tetracycline 30 μg, peptide on paper disk
Experimental: Activity was tested against a Pseudomonas sp. isolated from infected middle-ear fluid.

strain ST4SA [2] = experiment: Antibiotic resistance of strain ST4SA (antibiotic discs, Oxoid); assay type: cell-based, Enterococcus mundtii
strain ST4SA [3] = experiment: Resistance of E. mundtii ST4 against antibiotics and anti-inflammatory drugs; assay type: cell-based, Enterococcus mundtii; details: Ibuprofen 5, Aspirin 5, Promoxil 100, Cipadur 50, Cefasyn 100, Roxibidd 30, Doximal 20, Ciploxx 100, Utin 80, Rheugesic 4, Coxflam 1.5, K-fenak 5, Preflam 3 mg/ml
[4] = system: Lactobacillus sakei DSM 20017; experiment: Blocking of the Lipid II target site with vancomycin; assay type: cell-based; details: L. sakei DSM 20017, FIG. 26
Description: To test this hypothesis, the Lipid II target site of Lactobacillus sakei DSM 20017 (sensitive to peptide ST 4SA) was blocked with vancomycin (see schematic presentation, FIG. 26). Vancomycin adheres to the amino acid side chain of the Lipid II molecule, which would, theoretically, prevent peptide ST4SA from binding to the same site (that is if Lipid II acts as receptor). […] The fact that peptide ST4SA binds to more than one anchoring site on the sensitive cell may explain why it has such a broad spectrum of antimicrobial activity (inhibitory to Gram-positive and Gram-negative bacteria).

strain ST4SA [5] = experiment: Growth of strain ST4SA in the presence of TMP-SMX and Metronidazole; assay type: cell-based, Enterococcus mundtii; details: for Number of viable cells of strain ST4SA: NAN Palargon, 18 h, 37° C., control 1 × 10^8
Experimental: Children with HIV/AIDS are treated with Trimethoprim-sulfamethoxazole (TMP-SMX) and/or Metronidazole to prevent diarrhea.

[6] = Pseudomonas, read-out: Diameter of inhibition zones

Row | Compound | Inhibition zone of antibiotic on ST4 (strain ST4SA [2]) | Resistance of strain ST4SA to antibiotic (strain ST4SA [2]) | also measured
1 | CC1(C)S[C@@H]2[C@H](NC(=O)[C@H](N)c3ccccc3)C(=O)N2[C@H]1C(=O)O [Ampicillin] | +++ (+++ = inhibition zone, diameter larger than 17 mm) |  | zone of inhibition at 10 µg/disc [1, 6]: 24 mm
2 | CC(=O)Oc1ccccc1C(=O)O [Aspirin] |  |  | Inhibition zone of medicament on Strain ST4SA (strain ST4SA [3]): + (+ = diameters between 1 mm and 11 mm)
3 | Penicillin | +++ (+++ = inhibition zone, diameter larger than 17 mm) |  | 
4 | Cc1onc(-c2ccccc2Cl)c1C(=O)N[C@@H]1C(=O)N2[C@@H]1SC(C)(C)[C@@H]2C(=O)O [Cloxacillin] | − | resistant | 
5 | CO[C@H]1/C=C/O[C@@]2(C)Oc3c(C)c(O)c4c(O)c(c(/C=N/N5CCN(C)CC5)c(O)c4c3C2=O)NC(=O)/C(C)=C\C=C\[C@H](C)[C@H](O)[C@@H](C)[C@@H](O)[C@@H](C)[C@H](OC(C)=O)[C@@H]1C [Rifampicin] | +++ (+++ = inhibition zone, diameter larger than 17 mm) |  | 
6 | CN(C)[C@@H]1C(O)=C(C(N)=O)C(=O)[C@@]2(O)C(O)=C3C(=O)c4c(O)cccc4[C@@](C)(O)[C@H]3C[C@@H]12 [Tetracycline] | +++ (+++ = inhibition zone, diameter larger than 17 mm) |  | zone of inhibition at 30 µg/disc [1, 6]: 35 mm
7 | [H]/N=C(/N)N[C@H]1[C@H](O)[C@@H](O)[C@H](O[C@@H]2O[C@@H](C)[C@](O)(C=O)[C@H]2O[C@@H]2O[C@@H](CO)[C@H](O)[C@@H](O)[C@@H]2NC)[C@@H](N/C(N)=N\[H])[C@@H]1O [Streptomycin] | − | resistant | 
8 | CC[C@H](C)[C@H](N)C1=N[C@H](C(=O)N[C@@H](CC(C)C)C(=O)N[C@H](CCC(=O)O)C(=O)N[C@H](C(=O)N[C@H]2CCCCNC(=O)[C@H](CC(N)=O)NC(=O)[C@@H](CC(=O)O)NC(=O)[C@H](Cc3cnc[nH]3)NC(=O)[C@@H](Cc3ccccc3)NC(=O)[C@H]([C@@H](C)CC)NC(=O)[C@@H](CCCN)NC2=O)[C@@H](C)CC)CS1 [Bacitracin] ({Ileψ(thiazoline)Cys}-L[dE]IK[dOrn]I[dF]H[dD]N; lactam 4-C) | ++ (++ = inhibition zone, diameter 12 to 16 mm) |  | Diameter of inhibition zones [1]: 10 mm
9 | Neomycin | − | resistant | 
10 | CC[C@H]1OC(=O)[C@H](C)[C@@H](O[C@H]2C[C@@](C)(OC)[C@@H](O)[C@H](C)O2)[C@H](C)[C@@H](O[C@@H]2O[C@H](C)C[C@H](N(C)C)[C@H]2O)[C@](C)(O)C[C@@H](C)C(=O)[C@H](C)[C@@H](O)[C@]1(C)O [Erythromycin] | +++ (+++ = inhibition zone, diameter larger than 17 mm) |  | Diameter of inhibition zones [1]: No zone
11 | C[C@@H]1[C@H](O)[C@@H](C)/C=C/C=C/CC/C=C/C=C/C=C/C=C/C(O[C@H]2O[C@H](C)[C@@H](O)[C@H](N)[C@@H]2O)CC2O[C@](O)(CC(O)C(O)CCC(O)CC(O)CC(O)CC(=O)O[C@H]1C)CC(O)C2C(=O)O (stereo partly shown) [Nystatin] | − | resistant | 
12 | Cc1nnc(SCC2=C(C(=O)O)N3C(=O)[C@@H](NC(=O)Cn4cnnn4)[C@H]3SC2)s1 [Cephazolin] | + (+ = inhibition zone, diameter 1 to 11 mm) |  | 
13 | CO[C@@H]1[C@@H](OC(N)=O)[C@@H](O)[C@H](Oc2ccc3c(O)c(NC(=O)c4ccc(O)c(CC=C(C)C)c4)c(=O)oc3c2C)OC1(C)C [Novobiocin] | +++ (+++ = inhibition zone, diameter larger than 17 mm) |  | 
14 | COc1cccc(OC)c1C(=O)N[C@@H]1C(=O)N2[C@@H]1SC(C)(C)[C@@H]2C(=O)O [Methicillin] | − | resistant | 
15 | O=C(N[C@H](CO)[C@H](O)c1ccc([N+](=O)[O-])cc1)C(Cl)Cl [Chloramphenicol] | +++ (+++ = inhibition zone, diameter larger than 17 mm) |  | zone of inhibition at 30 µg/disc [1, 6]: 28 mm
16 | Cc1onc(-c2ccccc2)c1C(=O)N[C@@H]1C(=O)N2[C@@H]1SC(C)(C)[C@@H]2C(=O)O [Oxacillin] | − | resistant | 
17 | Nisin [reference compound] |  |  | Effect on target cells after blocking Lipid II with vancomycin [4]: prevented the binding of Nisin to the Lipid II target site
18 | CC1COc2c(N3CCN(C)CC3)c(F)cc3c(=O)c(C(=O)O)cn1c23 (stereo not shown) [Oflaxacin] | ++ (++ = inhibition zone, diameter 12 to 16 mm) |  | 
19 | O=C(O)c1cn(C2CC2)c2cc(N3CCNCC3)c(F)cc2c1=O [Ciprofloxzcin] | +++ (+++ = inhibition zone, diameter larger than 17 mm) |  | 
20 | CC(C)Cc1ccc(C(C)C(=O)O)cc1 (stereo not shown) [Ibuprofen] |  |  | Inhibition zone of medicament on Strain ST4SA (strain ST4SA [3]): ++ (++ = diameters between 12 mm and 16 mm)
21 | CN[C@H](CC(C)C)C(=O)N[C@H]1C(=O)N[C@@H](CC(N)=O)C(=O)N[C@H]2C(=O)N[C@H]3C(=O)N[C@H](C(=O)N[C@H](C(=O)O)c4cc(O)cc(O)c4-c4cc3ccc4O)[C@H](O)c3ccc(c(Cl)c3)Oc3cc2cc(c3O[C@@H]2O[C@H](CO)[C@@H](O)[C@H](O)[C@H]2O[C@H]2C[C@](C)(N)[C@H](O)[C@H](C)O2)Oc2ccc(cc2Cl)[C@H]1O [Vancomycin] | ++ (++ = inhibition zone, diameter 12 to 16 mm) |  | 
22 | Cc1ncc([N+](=O)[O-])n1CCO [Metronidazole] | − | resistant | Decrease of cell numbers of strain ST4SA (strain ST4SA [5]): four; Number of viable cells of strain ST4SA (strain ST4SA [5]; Metronidazole 50 mg): 1.3 × 10^4; Number of viable cells of strain ST4SA (strain ST4SA [5]; Metronidazole 100 mg): 6 × 10^4; Number of viable cells of strain ST4SA (strain ST4SA [5]; Metronidazole 200 mg): 3 × 10^4
23 | Trimethoprim-sulfamethoxazole [TMP-SMX] |  |  | Decrease of cell numbers of strain ST4SA (strain ST4SA [5]): four; Number of viable cells of strain ST4SA (strain ST4SA [5]; TMP-SMX 20/100 mg): 7 × 10^4; Number of viable cells of strain ST4SA (strain ST4SA [5]; TMP-SMX 40/200 mg): 8 × 10^4; Number of viable cells of strain ST4SA (strain ST4SA [5]; TMP-SMX 60/300 mg): 8 × 10^4; Number of viable cells of strain ST4SA (strain ST4SA [5]; TMP-SMX 80/400 mg): 1.8 × 10^4
